{"source": "patent US8568968B2", "about": "“EGFR polymorphisms predict gender-related treatment” (University of Southern California, priority 2009, dated 2013)", "system": "metastatic colon cancer patients", "experiment": "Overall survival of metastatic colon cancer patients treated with 5-FU-based chemotherapy, by gender and EGFR genotype", "format": "in vivo, human", "conditions": "for RR (95% CI): relative risk", "source_text": "A total of 318 patients with metastatic colon cancer treated at the University of Southern California/Norris Comprehensive Cancer Center (USC/NCCC) or the Los Angeles County/University of Southern California Medical Center (LAC/USCMC), between 1992 and 2003, were eligible for the present study. This population included only metastatic or recurrent colon cancer patients. All patients in this study signed informed consents and enrolled in protocols designed to study the molecular determinants of colon cancer. These protocols permitted blood collection (USC protocol OS-99-10) and/or tissue collection (USC protocol 0S-00-15).\nAll patients were entered and followed in an institutional database. Patient information was collected through database review and retrospective chart review when additional patient information was necessary. A large number of the patients (69%) were initially treated at an outside institution until, because of failure to respond to prior treatment, they were referred to USC/NCCC or LAC/USCMC for subsequent treatments. The end point of this study, OS, was determined by calculating the difference between the date of first treatment at USC/NCCC or LAC/USC and the date of last follow-up appointment or date of death from disease.\nAll 318 patients were enrolled in at least one chemotherapy clinical trial while being treated at this institution (USC/NCCC or LAC/USCMC). All patients were treated with 5-fluorouracil (5-FU)-based chemotherapy regimens, and response to chemotherapy was not investigated as an end point for this study. This is a heavily pretreated cohort with 20 (6%) patients treated with one line of chemotherapy, 19 (6%) patients treated with two different chemotherapy regimens, 183 (58%) patients treated with three chemotherapy regimens, and 96 (30%) patients treated with four or more chemotherapy regimens. […] All 318 patients received treatment with 5-FU, 298 (94%) patients received treatment with 5-FU/irinotecan (CPT-11), and 279 (88%) patients received treatment with 5-FU/oxaliplatin.\nThe primary end point of this study is OS. The OS was determined by calculating the difference between the date of first treatment at USC/NCCC or LAC/USC and the date of last follow-up appointment or date of death. Patients who were alive at the last follow-up were censored at that time.\nThe associations between sex and other demographic and clinical characteristics were examined using contingency tables and the Fisher exact test. The dominant code for HER-1 R497K was used for the association with OS, and patients who carried heterozygous (Arg/Lys) and homozygous mutant genotypes (Lys/Lys) were grouped together. EGFR intron 1 (CA)n repeat polymorphism was categorized into two groups: both alleles with <20 (CA)n (SEQ ID NO: 3) and any alleles with ≧20 (CA)n (SEQ ID NO: 4) as described previously (19). The associations of HER-1 R497K and EGFR intron 1 (CA)n repeat polymorphisms with OS were analyzed individually using Kaplan-Meier plots and the log-rank test. The independent effects of two EGFR polymorphisms on OS were examined in multivariable analysis using Cox proportional hazards model. Interactions between sex and EGFR polymorphisms were examined using stratified models and were tested by comparing corresponding likelihood ratio statistics between the baseline and nested Cox proportional hazards models that included the multiplicative product terms (20).", "note": "Where “and” joins values, the source holds several entries; their conditions need not be identical. Equal entries are not always repeated.", "data": [{"smiles": "O=c1[nH]cc(F)c(=O)[nH]1", "note": "[5-FU, 5-fluorouracil]", "values": [{"measurement": "Median survival (95% CI)", "setting": "female, EGFR intron 1 any (CA)n repeats ≧20", "result": "14.1 mo and 14.1 (12.1-18.3) mo"}, {"measurement": "Median survival (95% CI)", "setting": "female, EGFR intron 1 both (CA)n repeats <20", "result": "17.6 mo and 17.9 mo and 17.6 (13.7-22.7) mo"}, {"measurement": "Median survival (95% CI)", "setting": "female, HER-1 R497K Arg/Arg, 5-FU-based chemotherapy regimens", "result": "16.0 (13.5-19.2) mo"}, {"measurement": "Median survival (95% CI)", "setting": "female, HER-1 R497K Lys allele (Arg/Lys or Lys/Lys)", "result": "14.0 (11.2-17.9) mo"}, {"measurement": "Median survival (95% CI)", "setting": "female, combined: Arg/Arg and (CA)n <20", "result": "15.7 (11.5-41.4) mo"}, {"measurement": "Median survival (95% CI)", "setting": "female, combined: Arg/Arg and (CA)n ≧20 or Lys and (CA)n <20", "result": "17.3 (14.0-19.2) mo"}, {"measurement": "Median survival (95% CI)", "setting": "female, combined: Lys and (CA)n ≧20", "result": "12.2 (7.7-16.7) mo"}, {"measurement": "RR (95% CI)", "setting": "female, Arg/Arg and (CA)n ≧20 or Lys and (CA)n <20 vs Arg/Arg and (CA)n <20 (reference)", "result": "0.93 (0.56-1.54)"}, {"measurement": "RR (95% CI)", "setting": "female, Lys allele vs Arg/Arg (reference), Cox model", "result": "1.41 (0.94-2.10)"}, {"measurement": "RR (95% CI)", "setting": "female, Lys and (CA)n ≧20 vs Arg/Arg and (CA)n <20 (reference)", "result": "1.90 (1.10-3.29)"}, {"measurement": "RR (95% CI)", "setting": "female, any (CA)n ≧20 vs both <20 (reference)", "result": "1.37 (0.93-2.01)"}, {"measurement": "Median survival (95% CI)", "setting": "male, EGFR intron 1 any (CA)n repeats ≧20", "result": "13.1 mo and 13.1 (10.7-16.0) mo"}, {"measurement": "Median survival (95% CI)", "setting": "male, EGFR intron 1 both (CA)n repeats <20", "result": "10.3 mo and 10.4 mo and 10.3 (8.3-15.5) mo"}, {"measurement": "Median survival (95% CI)", "setting": "male, HER-1 R497K Arg/Arg, 5-FU-based chemotherapy regimens", "result": "10.3 (9.0-13.5) mo"}, {"measurement": "Median survival (95% CI)", "setting": "male, HER-1 R497K Lys allele (Arg/Lys or Lys/Lys)", "result": "13.7 (10.8-19.1) mo"}, {"measurement": "Median survival (95% CI)", "setting": "male, combined: Arg/Arg and (CA)n <20", "result": "8.9 (7.3-11.4) mo"}, {"measurement": "Median survival (95% CI)", "setting": "male, combined: Arg/Arg and (CA)n ≧20 or Lys and (CA)n <20", "result": "13.1 (10.3-17.5) mo"}, {"measurement": "Median survival (95% CI)", "setting": "male, combined: Lys and (CA)n ≧20", "result": "13.6 (10.7-19.5) mo"}, {"measurement": "RR (95% CI)", "setting": "male, Arg/Arg and (CA)n ≧20 or Lys and (CA)n <20 vs Arg/Arg and (CA)n <20 (reference)", "result": "0.84 (0.57-1.25)"}, {"measurement": "RR (95% CI)", "setting": "male, Lys allele vs Arg/Arg (reference), Cox model", "result": "0.64 (0.46-0.89)"}, {"measurement": "RR (95% CI)", "setting": "male, Lys and (CA)n ≧20 vs Arg/Arg and (CA)n <20 (reference)", "result": "0.62 (0.39-0.97)"}, {"measurement": "RR (95% CI)", "setting": "male, any (CA)n ≧20 vs both <20 (reference)", "result": "0.92 (0.67-1.28)"}]}]}
